Source: patent US12275733B2, “Substituted pyrido[3,4-b]indoles for the treatment of cartilage disorders” (Sanofi, priority 2016, dated 2025)

Tested on: ATDC5 cells
Assay: Chondrogenesis activity assay in ATDC5 cells (collagen type II induction, immunofluorescence)
Format: cell-based, mouse
Details: Mus musculus; for EC50: collagen type II induction in ATDC5 cells, concentration reaching 50% of maximum induction; for Emax: maximum percent induction of collagen type II relative to internal reference compound at 10 μM, ATDC5 cells
Protocol: A) Chondrogenesis Activity Assay in ATDC5 Cells
The chondrogenic potential of the compounds of the invention was determined using clonal mouse chondrogenic ATDC5 cells (T. Atsumi et al., Cell Differ. Dev. 1990, 30, 109-116). ATDC5 cells are derived from mouse embryonic AT805 teratocarcinoma cells and are used frequently to study the multistep chondrogenic differentiation process from precursor cells into chondrocytes (C. Shukunami et al., Exp. Cell Res. 1998, 241, 1-11; H. Aklyami et al., J. Bone Miner. Res. 1996, 11, 22-28; H. Akiyami et al., Biochem. Biophys. Res. Commun. 1997, 235, 142-147; C. Shukunami et al., J. Cell Biol. 1996, 133, 457-468; C. Shukunami et al., J. Bone Miner. Res. 1997, 12, 1174-1188). Undifferentiated ATDC5 cells grow in vitro until confluence, showing a fibroblast-like morphology. In the presence of insulin, cells undergo transient condensation and form numerous nodular structures (cartilage nodules). The cartilagenous nature of these nodules was shown by Alcian Blue staining as evidence of the production of proteoglycan (aggrecan) and collagen type II expression (by expression analysis), both molecular markers of chondrocytes (C. Shukunami et al., J. Cell Biol. 1996, 133, 457-468).
Chondrogenic differentiation of ATDC5 cells into chondrocytes by the compounds of the invention was determined by measuring the induction of type II collagen protein as a marker of chondrocytes, a structural component of the extracellular matrix which constitutes more than 80% of cartilage mass (D. R. Eyre, Clin. Orthop. Relat. Res. 2004, 427 Suppl, S118-S122). ATDC5 cells were obtained from RIKEN and cultured as monolayer in basal culture medium (Dulbecco's Modified Eagle Medium/Nutrient Mixture F-12 (DMEM/F12, Invitrogen, #31331-093) supplemented with 10 μg/ml Transferrin (Roche, #10652 202001), 3×10E−8 M sodium seienite (Sigma, #S-5261) and 5% Fetal Calf Serum (FCS Gold, PAA, #A15-251)), at 37° C., and 5% CO2 in plastic flasks of 75 cm^2 or 300 cm^2 subconfluently for propagation. ATDC5 cells were harvested and resuspended in differentiation culture medium that consisted of basal culture medium complemented with 10 μg/ml insulin (Sigma, #19278), to initiate chondrogenic differentiation. For studying the effect of test compounds, the ATDC5 cells were plated in 96-well plates (3.0×10E4 cells per well in 200 μl of differentiation culture medium). Test compounds dissolved in DMSO were added to yield increasing compound concentrations, typically from 40 nM to 10 μM, and a final DMSO concentration of 0.1%. On each 96-well plate, control wells containing no test compound but the same concentration of DMSO, i.e. untreated cells, were included and used as reference for the determination of the effect of the test compounds on the cells, and wells containing an internal reference compound at a concentration of 10 μM were included and used as positive control and for standardizing the results. Cells in the wells were incubated for 4 days at 37° C., and 5% CO2, followed by quantification of intracellular collagen type II.
Quantification of collagen type II in the ATDC5-cells was done by immunofluorescence staining of collagen type II, and fluorescence intensity was measured using a cellular high content imaging system (ImageXpress, Molecular Device). For immunofluorescence staining of intracellular collagen, medium was removed after compound incubation and cells were fixed with 200 μl/well methanol/water (95%/5%). Cells were permeabilized in 200 μl/well phosphate-buffered saline (PBS) containing 0.2% Triton X100 for 15 min and, after removal of the solution, blocked for 30 min with 200 μl/well PBS/0.2% Triton X100 containing 1% bovine serum albumin (BSA) to avoid unspecific binding. After the blocking step, the solution was removed and collagen type II staining solution was added. […]

EC50 [µM]	Compound	Emax [%]
> 1.1	Cc1nccc2c1[nH]c1c(-c3cccc(OCc4ccc5ccccc5n4)c3)cc(Cl)cc12 [Example 260, 6-Chloro-1-methyl-8-[3-(quinolin-2-ylmethoxy)-phenyl]-9H-pyrido[3,4-b]indole]	< 20
0.56	Cc1nccc2c1[nH]c1c(-c3ccc(-n4ccccc4=O)nc3)cc(Cl)cc12 [Example 107, 5′-(6-Chloro-1-methyl-9H-pyrido[3,4-b]indol-8-yl)-[1,2′]bipyridinyl-2-one]	20 to 50
0.33	Cn1cc(-c2cc(Cl)cc3c4ccncc4n(CC(F)(F)F)c23)cn1 [Example 135, 6-Chloro-8-(1-methyl-1H-pyrazol-4-yl)-9-(2,2,2-trifluoro-ethyl)-9H-pyrido[3,4-b]indole]	50 to 80
> 10	Cc1nccc2c1[nH]c1c(-c3ccc4c(c3)CCO4)cc(Cl)cc12 [Example 179, 6-Chloro-8-(2,3-dihydro-benzofuran-5-yl)-1-methyl-9H-pyrido[3,4-b]indole]	> 80
> 10	COc1ccc(-c2cc(Cl)cc3c2[nH]c2c(C)nccc23)cc1OCc1ccccc1 [Example 185, 8-(3-Benzyloxy-4-methoxy-phenyl)-6-chloro-1-methyl-9H-pyrido[3,4-b]indole]	20 to 50
> 3.3	COc1cc(-c2cc(Cl)cc3c2[nH]c2c(C)nccc23)ccc1OCc1ccccn1 [Example 221, 6-Chloro-8-[3-methoxy-4-(pyridin-2-ylmethoxy)-phenyl]-1-methyl-9H-pyrido[3,4-b]indole]	20 to 50
0.53	CCn1c2c(-c3ccc(OCCN(C(C)C)C(C)C)cc3)cc(Cl)cc2c2ccnc(C)c21 [Example 26, (2-[4-(6-Chloro-9-ethyl-1-methyl-9H-pyrido[3,4-b]indol-8-yl)-phenoxy]-ethyl)-diisopropyl-amine]	50 to 80
> 10	FC(F)(F)Cn1c2cnccc2c2cc(Cl)cc(-c3cnn4ccccc34)c21 [Example 139, 6-Chloro-8-pyrazolo[1,5-a]pyridin-3-yl-9-(2,2,2-trifluoro-ethyl)-9H-pyrido[3,4-b]indole]	< 20
> 10	Cc1nccc2c1[nH]c1c(-c3ccc(OCCc4ccccc4)cc3)cc(Cl)cc12 [Example 231, 6-Chloro-1-methyl-8-(4-phenethyloxy-phenyl)-9H-pyrido[3,4-b]indole]	20 to 50
> 10	COc1ccc(-c2cc(Cl)cc3c2[nH]c2c(C)nccc23)c(OC)c1 [Example 193, 6-Chloro-8-(2,4-dimethoxy-phenyl)-1-methyl-9H-pyrido[3,4-b]indole]	20 to 50
0.51	Cc1nccc2c1[nH]c1c(-c3ccc(OCCn4cc(Br)cn4)cc3)cc(Cl)cc12 [Example 42, 8-(4-[2-(4-Bromo-pyrazol-1-yl)-ethoxy]-phenyl)-6-chloro-1-methyl-9H-pyrido[3,4-b]indole]	50 to 80
0.49	COc1ccc(-c2cc(Cl)cc3c4ccnc(C)c4n(C)c23)nc1N [Example 240, 6-(6-Chloro-1,9-dimethyl-9H-pyrido[3,4-b]indol-8-yl)-3-methoxy-pyridin-2-ylamine]	50 to 80
2.1	Cc1nccc2c1[nH]c1c(-c3ccc(OC(C)C)nc3)cc(Cl)cc12 [Example 102, 6-Chloro-8-(6-isopropoxy-pyridin-3-yl)-1-methyl-9H-pyrido[3,4-b]indole]	20 to 50
> 10	COc1ncc(-c2cc(Cl)cc3c4ccncc4n(CC(F)(F)F)c23)cc1F [Example 85, 6-Chloro-8-(5-fluoro-6-methoxy-pyridin-3-yl)-9-(2,2,2-trifluoro-ethyl)-9H-pyrido[3,4-b]indole]	20 to 50
3.6	CCn1c2c(-c3ccc(OC)c(N)n3)cc(Cl)cc2c2ccnc(C)c21 [Example 17, 6-(6-Chloro-9-ethyl-1-methyl-9H-pyrido[3,4-b]indol-8-yl)-3-methoxy-pyridin-2-ylamine]	> 80
> 3.3	CCn1c2c(-c3ccnn3Cc3cccnc3C)cc(Cl)cc2c2ccnc(C)c21 [Example 7, 6-Chloro-9-ethyl-1-methyl-8-[2-(2-methyl-pyridin-3-ylmethyl)-2H-pyrazol-3-yl]-9H-pyrido[3,4-b]indole]	< 20
1.7	CCn1c2cnccc2c2cc(Cl)cc(-c3cccnc3)c21 [Example 1, 6-Chloro-9-ethyl-8-pyridin-3-yl-9H-pyrido[3,4-b]indole]	< 20
0.49	Cc1nccc2c1[nH]c1c(-c3cnn(Cc4cccnc4)c3)cc(Cl)cc12 [Example 115, 6-Chloro-1-methyl-8-(1-pyridin-3-ylmethyl-1H-pyrazol-4-yl)-9H-pyrido[3,4-b]indole]	> 80
> 10	Cc1nccc2c1[nH]c1c(-c3ccc(N4CCOC4=O)nc3)cc(Cl)cc12 [Example 110, 3-[5-(6-Chloro-1-methyl-9H-pyrido[3,4-b]indol-8-yl)-pyridin-2-yl]-oxazolidin-2-one]	20 to 50
2	Cc1nccc2c1[nH]c1c(-c3ccc(C(O)c4ccccc4)cc3)cc(Cl)cc12 (stereo not drawn) [Example 24, [4-(6-Chloro-1-methyl-9H-pyrido[3,4-b]indol-8-yl)-phenyl]-phenyl-methanol]	50 to 80
0.84	FC(F)(F)Cn1c2cnccc2c2cc(Cl)cc(-c3cnn(Cc4cccs4)c3)c21 [Example 166, 6-Chloro-8-(1-thiophen-2-ylmethyl-1H-pyrazol-4-yl)-9-(2,2,2-trifluoro-ethyl)-9H-pyrido[3,4-b]indole]	> 80
0.5	Cc1nccc2c1[nH]c1c(-c3cnc(-n4cccn4)nc3)cc(Cl)cc12 [Example 237, 6-Chloro-1-methyl-8-(2-pyrazol-1-yl-pyrimidin-5-yl)-9H-pyrido[3,4-b]indole]	> 80
2.1	Cc1nccc2c1[nH]c1c(-c3ccc(OCC4CC4)cc3)cc(Cl)cc12 [Example 181, 6-Chloro-8-(4-cyclopropylmethoxy-phenyl)-1-methyl-9H-pyrido[3,4-b]indole]	> 80
0.75	FC(F)(F)Cn1c2cnccc2c2cc(Cl)cc(-c3ccc(N4CCOCC4)nc3)c21 [Example 86, 6-Chloro-8-(6-morpholin-4-yl-pyridin-3-yl)-9-(2,2,2-trifluoro-ethyl)-9H-pyrido[3,4-b]indole]	> 80
1.2	FC(F)(F)Cn1c2cnccc2c2cc(Cl)cc(-c3ccc(NC4CCCCC4)nc3)c21 [Example 80, (5-[6-Chloro-9-(2,2,2-trifluoro-ethyl)-9H-pyrido[3,4-b]indol-8-yl]-pyridin-2-yl)-cyclohexyl-amine]	20 to 50
> 3.3	Cc1nccc2c1[nH]c1c(-c3cccc(OCc4ccc(C(F)(F)F)o4)c3)cc(Cl)cc12 [Example 277, 6-Chloro-1-methyl-8-[3-(5-trifluoromethyl-furan-2-ylmethoxy)-phenyl]-9H-pyrido[3,4-b]indole]	< 20
1.5	CCn1c2c(-c3cnn(Cc4ccccn4)c3)cc(Br)cc2c2ccnc(C)c21 [Example 261, 6-Bromo-9-ethyl-1-methyl-8-(1-pyridin-2-ylmethyl-1H-pyrazol-4-yl)-9H-pyrido[3,4-b]indole]	> 80
